Key:
Assay in all cases: Alanyl-peptidase detection on agar medium (Example 13)
Format in all cases: cell-based
Conditions in all cases: 25 mg/l
Edwardsiella tarda = test system: Edwardsiella tarda
Protocol: (§1) The detection media were prepared by mixing 3.6 g of biogelytone (bioMérieux), 2.16 g of meat extract (bioMérieux), 1.26 g of malt extract (bioMérieux), 5.76 g of NaCl (Merck) and 10.8 g of agar (bioMérieux).
(§2) 720 ml of osmosed water were added to the powder, and the mixture was then melted in a waterbath at […]. The product was separated into two flasks, each of 360 ml. Autoclaving was carried out at 121° C. for 15 min and the product was cooled to […]. in a waterbath.
(§3) L-Alanyl-7-amino-4-methylcoumarin (Ala-AMC, Bachem) was then added to the first flask as a control, at the final concentration of 50 mg/l, and L-alanyl-9-aminobenzo[a]phenoxazin-5-one (Ala-ABP, substrate of the invention obtained in Example 2, in which the amino acid is L-alanine), was then added to the second flask at the final concentration of 25 mg/l.
(§4) The size of the colonies, their coloration and also the intensity of this coloration were noted.

Streptococcus agalactiae = test system: Streptococcus agalactiae
Protocol: as §1, §2, §3, §4

[1] = test system: Corynebacterium Pseudodiphteriticum
Protocol: as §1, §2, §3, §4

Pseudomonas aeruginosa = test system: Pseudomonas aeruginosa; on color of the colony: key: B corresponds to fluorescent blue; R corresponds to pink
Protocol: as §1, §2, §3, §4

Escherichia coli = test system: Escherichia coli
Protocol: as §1, §2, §3, §4

[2] = test system: Staphylococcus epidermidis
Protocol: as §1, §2, §3, §4

Candida glabrata = test system: Candida glabrata
Protocol: as §1, §2, §3, §4

Staphylococcus aureus = test system: Staphylococcus aureus
Protocol: as §1, §2, §3, §4

Hafnia alvei = test system: Hafnia alvei
Protocol: as §1, §2, §3, §4

Acinetobacter baumanii = test system: Acinetobacter baumanii
Protocol: as §1, §2, §3, §4

Candida albicans = test system: Candida albicans
Protocol: as §1, §2, §3, §4

Candida krusei = test system: Candida krusei
Protocol: as §1, §2, §3, §4

Bacillus subtilis = test system: Bacillus subtilis
Protocol: as §1, §2, §3, §4

Proteus mirabilis = test system: Proteus mirabilis
Protocol: as §1, §2, §3, §4

Streptococcus pyogenes = test system: Streptococcus pyogenes
Protocol: as §1, §2, §3, §4

Enterobacter cloacae = test system: Enterobacter cloacae
Protocol: as §1, §2, §3, §4

Enterococcus faecium = test system: Enterococcus faecium
Protocol: as §1, §2, §3, §4

Salmonella typhimurium = test system: Salmonella typhimurium
Protocol: as §1, §2, §3, §4

Serratia liquefaciens = test system: Serratia liquefaciens
Protocol: as §1, §2, §3, §4

Klebsiella pneumoniae = test system: Klebsiella pneumoniae
Protocol: as §1, §2, §3, §4

Serratia marcescens = test system: Serratia marcescens
Protocol: as §1, §2, §3, §4

[3] = test system: Staphylococcus saprophyticus
Protocol: as §1, §2, §3, §4

Listeria innocua = test system: Listeria innocua
Protocol: as §1, §2, §3, §4

Enterococcus faecalis = test system: Enterococcus faecalis
Protocol: as §1, §2, §3, §4

Saccharomyces cerevisiae = test system: Saccharomyces cerevisiae
Protocol: as §1, §2, §3, §4

L-alanyl-9-aminobenzo[a]phenoxazin-5-one [Ala-ABP]
color of the colony (Edwardsiella tarda; 24 h): R | growth diameter (Edwardsiella tarda; 24 h): 0.5 mm | intensity of coloration, scale 0 to 4 (Edwardsiella tarda; 24 h): 1 | color of the colony (Edwardsiella tarda; 48 h): R | growth diameter (Edwardsiella tarda; 48 h): 0.7 mm | intensity of coloration, scale 0 to 4 (Edwardsiella tarda; 48 h): 3 | growth diameter (Streptococcus agalactiae; 24 h): 0.1 mm | growth diameter (Streptococcus agalactiae; 48 h): 0.2 mm | growth diameter ([1]; 24 h): 0 mm | growth diameter ([1]; 48 h): 0 mm | color of the colony (Pseudomonas aeruginosa; 24 h): R | growth diameter (Pseudomonas aeruginosa; 24 h): 0.3 mm | intensity of coloration, scale 0 to 4 (Pseudomonas aeruginosa; 24 h): 1.7 | color of the colony (Pseudomonas aeruginosa; 48 h): R | growth diameter (Pseudomonas aeruginosa; 48 h): 0.5 mm | intensity of coloration, scale 0 to 4 (Pseudomonas aeruginosa; 48 h): 3 | color of the colony (Escherichia coli; 24 h): R | growth diameter (Escherichia coli; 24 h): 1.7 mm | intensity of coloration, scale 0 to 4 (Escherichia coli; 24 h): 1 | color of the colony (Escherichia coli; 48 h): R | growth diameter (Escherichia coli; 48 h): 1.8 mm | intensity of coloration, scale 0 to 4 (Escherichia coli; 48 h): 1 | growth diameter ([2]; 24 h): 0.1 mm | growth diameter ([2]; 48 h): 0.1 mm | growth diameter (Candida glabrata; 24 h): 0.1 mm | growth diameter (Candida glabrata; 48 h): 0.3 mm | growth diameter (Staphylococcus aureus; 24 h): 0.1 mm | growth diameter (Staphylococcus aureus; 48 h): 0.3 mm | color of the colony (Hafnia alvei; 24 h): R | growth diameter (Hafnia alvei; 24 h): 0.5 mm | intensity of coloration, scale 0 to 4 (Hafnia alvei; 24 h): 0.5 | color of the colony (Hafnia alvei; 48 h): R | growth diameter (Hafnia alvei; 48 h): 0.5 mm | intensity of coloration, scale 0 to 4 (Hafnia alvei; 48 h): 1.5 | color of the colony (Acinetobacter baumanii; 24 h): R | growth diameter (Acinetobacter baumanii; 24 h): 1.7 mm | intensity of coloration, scale 0 to 4 (Acinetobacter baumanii; 24 h): 3 | color of the colony (Acinetobacter baumanii; 48 h): R | growth diameter (Acinetobacter baumanii; 48 h): 1.7 mm | intensity of coloration, scale 0 to 4 (Acinetobacter baumanii; 48 h): 3 | growth diameter (Candida albicans; 24 h): 0.3 mm | color of the colony (Candida albicans; 48 h): R | growth diameter (Candida albicans; 48 h): 0.5 mm | intensity of coloration, scale 0 to 4 (Candida albicans; 48 h): 2 | growth diameter (Candida krusei; 24 h): 0.5 mm | growth diameter (Candida krusei; 48 h): 1 mm | growth diameter (Bacillus subtilis; 24 h): 0.1 mm | growth diameter (Bacillus subtilis; 48 h): 0.5 mm | color of the colony (Proteus mirabilis; 24 h): R | growth diameter (Proteus mirabilis; 24 h): 1.7 mm | intensity of coloration, scale 0 to 4 (Proteus mirabilis; 24 h): 0.5 | color of the colony (Proteus mirabilis; 48 h): R | growth diameter (Proteus mirabilis; 48 h): 1.7 mm | intensity of coloration, scale 0 to 4 (Proteus mirabilis; 48 h): 1.5 | growth diameter (Streptococcus pyogenes; 24 h): 0.1 mm | growth diameter (Streptococcus pyogenes; 48 h): 0.2 mm | color of the colony (Enterobacter cloacae; 24 h): R | growth diameter (Enterobacter cloacae; 24 h): 0.7 mm | intensity of coloration, scale 0 to 4 (Enterobacter cloacae; 24 h): 1.5 | color of the colony (Enterobacter cloacae; 48 h): R | growth diameter (Enterobacter cloacae; 48 h): 0.7 mm | intensity of coloration, scale 0 to 4 (Enterobacter cloacae; 48 h): 2 | growth diameter (Enterococcus faecium; 24 h): 0.2 mm | growth diameter (Enterococcus faecium; 48 h): 0.3 mm | color of the colony (Salmonella typhimurium; 24 h): R | growth diameter (Salmonella typhimurium; 24 h): 1 mm | intensity of coloration, scale 0 to 4 (Salmonella typhimurium; 24 h): 0.5 | color of the colony (Salmonella typhimurium; 48 h): R | growth diameter (Salmonella typhimurium; 48 h): 1.5 mm | intensity of coloration, scale 0 to 4 (Salmonella typhimurium; 48 h): 1 | color of the colony (Serratia liquefaciens; 24 h): R | growth diameter (Serratia liquefaciens; 24 h): 0.7 mm | intensity of coloration, scale 0 to 4 (Serratia liquefaciens; 24 h): 3 | color of the colony (Serratia liquefaciens; 48 h): R | growth diameter (Serratia liquefaciens; 48 h): 1.3 mm | intensity of coloration, scale 0 to 4 (Serratia liquefaciens; 48 h): 3 | color of the colony (Klebsiella pneumoniae; 24 h): R | growth diameter (Klebsiella pneumoniae; 24 h): 1 mm | intensity of coloration, scale 0 to 4 (Klebsiella pneumoniae; 24 h): 3 | color of the colony (Klebsiella pneumoniae; 48 h): R | growth diameter (Klebsiella pneumoniae; 48 h): 1.5 mm | intensity of coloration, scale 0 to 4 (Klebsiella pneumoniae; 48 h): 3 | color of the colony (Serratia marcescens; 24 h): R | growth diameter (Serratia marcescens; 24 h): 0.5 mm | intensity of coloration, scale 0 to 4 (Serratia marcescens; 24 h): 2 | color of the colony (Serratia marcescens; 48 h): R | growth diameter (Serratia marcescens; 48 h): 1 mm | intensity of coloration, scale 0 to 4 (Serratia marcescens; 48 h): 3 | growth diameter ([3]; 24 h): 0.1 mm | growth diameter ([3]; 48 h): 0.3 mm | growth diameter (Listeria innocua; 24 h): 0.2 mm | growth diameter (Listeria innocua; 48 h): 0.3 mm | growth diameter (Enterococcus faecalis; 24 h): 0.3 mm | growth diameter (Enterococcus faecalis; 48 h): 0.3 mm | growth diameter (Saccharomyces cerevisiae; 24 h): 0 mm | growth diameter (Saccharomyces cerevisiae; 48 h): 0.2 mm

Source: patent US7695930B2, “Method for the detection, identification and/or quantification of microoganisms with peptidase activity using phenoxazinone derivatives as enzyme substrates” (Biomerieux, priority 2003, dated 2010)
